# Experiments:
# [1] = stability in water / H2O-mediated rearrangement (HPLC); type: physicochemical
# Procedure: (§1) To verify the identity of the shunt metabolites, purified 4 (30 mg) was incubated in H2O-DMSO (9:1), and the resultant products were isolated and subjected to spectroscopic analysis.
# Large-scale Conversion of 4 to 1, 2, 3 and 5 in H2O. The purity of compound 4 was first analyzed by HPLC showing a single peak (purity >98%) and then confirmed by ^1H NMR spectrum (in CDCl3) showing no detectable contaminant. A solution of 4 (30 mg in 6 ml of DMSO) was then added to 55 ml Milli-Q H2O, and the resultant mixture was incubated at 37° C. for 2 hours. The reaction mixture was evaporated under high vacuo. The residue was subjected to silica gel flash column chromatography eluted with CHCl3-MeOH (from 10:0 to 9.4:0.6) to yield pure 1 (8 mg), 3 (9 mg), and a mixture of 2 and 5. The latter was further resolved by semi-preparative to afford pure 2 (6 mg) and 5 (4 mg). The ESI−MS, ^1H NMR and optical rotation data of compounds 1, 2, 3, and 5 were identical to those obtained from the corresponding compounds isolated from fermentation (the ^13C NMR spectrum of 1 was also measured, which is identical to that of 1 obtained from fermentation).
# H2O-mediated rearrangement of 112-114 and 117-119. […]
# Regioselective 1,4-reduction to access the reduced NK30424 scaffold. […] The reactions for 203, 209, and 210 were complete in 2, 8, and 12 hrs, respectively, as monitored by HPLC (yields>80%). […]
# HCT-116 cells = details: same assay conditions for both substances; cited from earlier work
# experimental tumors = details: efficacy comparable to or better than MTM C; cited from earlier work
# [2] = stability in organic solvents and under fermentation condition (HPLC, 1H NMR); type: physicochemical; details: in CHCl3, DMSO, MeOH, and MeOH-H2O at 25° C. for 90 days
# Procedure: as §1
# Seed medium (50 mL) in a 250-mL flask was inoculated with spores of S. platensis and incubated on a rotary shaker at 250 rpm and 28° C. for 30 hr. The resultant seed culture (25 mL) was then inoculated into production medium (600 mL containing 70 g/L XAD-16 resins) in a 2-L flask, which was incubated on a rotary shaker at 250 rpm and 28° C. for 2 days. The combined production culture broth (7 L) was filtered through gauze sponges to capture the XAD-16 resins. The resins were washed with Milli-Q H2O, dried at room temperature, and eluted with anhydrous ethanol. The ethanol extract was evaporated under reduced pressure to yield an oily residue. The residue was first analyzed by HPLC-UV (PDA) and LC-ESI-MS to confirm the presence of the various congeners of 110. Although they can survive during fermentation and be stabilized in H2O upon absorption to resins, 110 and its congeners 112-119 undergo rapid rearrangement in aqueous solution. They are stable in most organic solvents such as CHCl3, EtOAc, hexane, and absolute ethanol at room temperature. Consequently, isolation of these metabolites was performed mainly by repeated silica gel flash column chromatography using two different solvent systems (CHCl3/MeOH and EtOAc/hexane).
# [3] = system: K-ras transformed NIH/3T3 mouse fibroblasts; details: 0.4 ∝g/ml; cited from earlier work
compound,measurement,setting,value
"CO[C@H]1/C=C/CC/C=C/C(=O)O[C@@H](/C(C)=C/[C@H](C)C(=O)CCCC2CC(=O)NC(=O)C2)[C@@H](C)[C@@H]1O [Compound 4, iso-Migrastatin]",stability in aqueous solution (H2O-mediated rearrangement),[1],rapid conversion
"C/C(=C\[C@H](C)C(=O)C[C@H](O)CC1CC(=O)NC(=O)C1)[C@@H]1OC(=O)/C=C/CC/C=C/C=C\[C@@H]1C [Compound 104, lactimidomycin]",IC50 value with HCT-116 cells,HCT-116 cells,0.0014 µg/mL
same,survival time of tumor-bearing mice,experimental tumors,prolonged the survival time
"CO[C@@H](/C=C/CC/C=C/C(=O)O)[C@@H](O)[C@H](C)[C@@H](O)/C(C)=C/[C@H](C)C(=O)CCCC1CC(=O)NC(=O)C1 [Compound 3, Dorrigocin B]",change of solutions upon HPLC and 1H NMR analyses,[2],no detectable change
"CO[C@@H](/C=C/CC/C=C/C(=O)O)[C@@H](O)[C@H](C)/C=C(\C)[C@@H](O)[C@H](C)C(=O)CCCC1CC(=O)NC(=O)C1 [Compound 5, 13-epi-Dorrigocin A]",change of solutions upon HPLC and 1H NMR analyses,[2],no detectable change
CO[C@@]12[C@H](COC(N)=O)C3=C(C(=O)C(C)=C(N)C3=O)N1C[C@@H]1N[C@@H]12 [MTM C],IC50 value with HCT-116 cells,HCT-116 cells,0.8 µg/mL
"CO[C@H]1/C=C/CC/C=C/C(=O)O[C@H]([C@H](C)C(=O)CCCC2CC(=O)NC(=O)C2)/C(C)=C\[C@@H](C)[C@@H]1O [Compound 1, Migrastatin]",change of solutions upon HPLC and 1H NMR analyses,[2],no detectable change
"CO[C@@H](/C=C/CC/C=C/C(=O)O)[C@@H](O)[C@H](C)/C=C(\C)[C@H](O)[C@H](C)C(=O)CCCC1CC(=O)NC(=O)C1 [Compound 2, Dorrigocin A]",change of solutions upon HPLC and 1H NMR analyses,[2],no detectable change
same,reduction of the number of foci,[3],74%
